Laboratory results reported in patent publication US6737383B1, “Herbicidal oxadiazolidines” (priority 1999, dated 2004).

How the values were obtained:
wild oat [1] = assay: Test E wild oat; type: in vivo, Avena fatua; conditions: Preemergence
winter wheat [2] = assay: Test E winter wheat; type: in vivo, Triticum aestivum; conditions: Preemergence
winter barley = assay: Test E winter barley; type: in vivo, Hordeum vulgare; conditions: Preemergence
Green foxtail [3] = assay: Test D green foxtail; type: in vivo; conditions: Preemergence, 0 to 100 scale
Outline: (§1)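 Weed seeds planted in sandy loam; species kept apart in individual pots or compartments. Preemergence tests: treatment to soil surface within one day. Greenhouse growth, then visual injury scoring at 14–21 days (0–100).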

goosegrass = assay: Test D goosegrass; type: in vivo, Eleusine indica; conditions: Preemergence, 0 to 100 scale
Outline: as §1

crabgrass = assay: Test B pre/postemergence crabgrass; type: in vivo, Digitaria sanguinalis
Outline: (§2)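 Test chemicals in a non-phytotoxic solvent mixture with surfactant were sprayed preemergence onto planted seeds and postemergence onto plants 2 to 18 cm tall (1- to 4-leaf stage). After twelve to sixteen days in a greenhouse, injury was visually rated against untreated controls from 0 (no effect) to 10 (complete control).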

rice = assay: Test B flood test rice; type: in vivo, Oryza sativa
Outline: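 Read-out is a visual response score from 0 (no effect) to 10 (complete control), assigned by comparison with untreated controls. Treatment was applied at the 2-leaf stage, and plants stayed in the greenhouse for twelve to sixteen days before scoring.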

wild oat [4] = assay: Test B pre/postemergence wild oat; type: in vivo, Avena fatua; conditions: for Plant response rating, Wild oats: Rate 250 g/ha
Outline: as §2

Alexandergrass = assay: Test D Alexandergrass; type: in vivo, Brachiaria plantaginea; conditions: Preemergence, 0 to 100 scale
Outline: as §1

common groundsel = assay: Test D common groundsel; type: in vivo, Senecio vulgaris; conditions: Preemergence, 0 to 100 scale
Outline: as §1

winter wheat [5] = assay: Test E winter wheat; type: in vivo, Triticum aestivum; conditions: Postemergence
Outline: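 Each compound, carried in a non-phytotoxic solvent blend including surfactant, was applied (postemergence: over the top of young plants at 1- to 4-leaf stage). Plants stayed in the greenhouse about 21 to 28 days before visual comparison with untreated controls.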

Italian ryegrass = assay: Test E Italian ryegrass; type: in vivo, Lolium multiflorum; conditions: Preemergence
wheat = assay: Test B pre/postemergence wheat; type: in vivo, Triticum aestivum; conditions: for Plant response rating, Wheat: Rate 250 g/ha
Outline: as §2

green foxtail [6] = assay: Test E green foxtail; type: in vivo, Setaria viridis; conditions: Preemergence
blackgrass = assay: Test E blackgrass; type: in vivo, Alopecurus myosuroides; conditions: Preemergence
[7] = Rate 62 g/ha, 0 to 100 scale, 0 no effect, 100 complete control
[8] = Rate 125 g/ha, 0 to 100 scale (0 no effect, 100 complete control)
[9] = Rate 64 g/ha, 0 no injury, 100 complete control
[10] = Rate 125 g/ha, 0 no injury, 100 complete control
[11] = Postemergence, Rate 125 g/ha, scale of 0 to 10 where 0 is no effect and 10 is complete control
[12] = Preemergence, Rate 62 g/ha, scale 0 to 10 (0 no effect, 10 complete control)
[13] = Preemergence, Rate 500 g/ha, scale 0 to 10 (0 no effect, 10 complete control)
[14] = Rate 62 g/ha, Postemergence, scale of 0 to 10 where 0 is no effect and 10 is complete control
[15] = Rate 500 g/ha, Postemergence, scale 0 to 10, 0 no effect, 10 complete control
[16] = Preemergence, Rate 125 g/ha, 0 is no effect, 10 is complete control
[17] = Preemergence, scale of 0 to 10 where 0 is no effect and 10 is complete control
[18] = Postemergence, scale 0 to 10, 0 is no effect, 10 is complete control

CCn1c(=O)on(C(=O)N(c2ccccc2)C(C)C)c1=O [Compound 117]
80: Plant response rating, Green foxtail (green foxtail [6]; Rate 250 g/ha, 0 to 100 scale)
9: Crabgrass plant response rating (crabgrass; [11]) | Crabgrass plant response rating (crabgrass; Postemergence, Rate 250 g/ha, scale 0 to 10, 0 no effect, 10 complete control) | Crabgrass plant response rating (crabgrass; [12]) | Crabgrass plant response rating (crabgrass; [14]) | Crabgrass plant response rating (crabgrass; [15])
98: Plant response rating, Alexandergrass (Alexandergrass; Rate 500 g/ha)
25: Plant response rating, Barley (winter) (winter barley; [7]) | Plant response rating, Wheat (winter) (winter wheat [5]; Rate 250 g/ha, 0 to 100 scale (0 no effect, 100 complete control))
2: Wheat plant response rating (wheat; [12]) | Wheat plant response rating (wheat; [14])
10: Plant response rating, Crabgrass (crabgrass; Preemergence, Rate 125 g/ha, scale 0 to 10 (0 no effect, 10 complete control)) | Plant response rating, Crabgrass (crabgrass; Preemergence, Rate 250 g/ha, scale of 0 to 10 where 0 is no effect and 10 is complete control) | Crabgrass plant response rating (crabgrass; [13]) | Plant response rating, Wild oats (wild oat [4]; [17]) | Wild oats plant response rating (wild oat [4]; [13]) | Plant response rating, Wheat (winter) (winter wheat [5]; Rate 125 g/ha, 0 to 100 scale)
8: Wild oats plant response rating (wild oat [4]; [15]) | Wheat plant response rating (wheat; [13]) | Wheat plant response rating (wheat; [15])
3: Wild oats plant response rating (wild oat [4]; [11]) | Wild oats plant response rating (wild oat [4]; [12])
75: Plant response rating, Com. groundsel (common groundsel; [10])
45: Plant response rating, I. Ryegrass (Italian ryegrass; [8])
50: Plant response rating, I. Ryegrass (Italian ryegrass; [7]) | Plant response rating, Green foxtail (green foxtail [6]; [7]) | Plant response rating, Blackgrass (blackgrass; [7]) | Plant response rating, Blackgrass (blackgrass; [8])
60: Plant response rating, Wheat (winter) (winter wheat [2]; [8]) | Plant response rating, Green foxtail (green foxtail [6]; [8]) | Plant response rating, Blackgrass (blackgrass; Rate 250 g/ha, 0 to 100 scale)
7: Plant response rating, Wheat (wheat; [17])
4: Plant response rating, Wild oats (wild oat [4]; [18]) | Wheat plant response rating (0 to 10 scale) (wheat; [16])
85: Plant response rating, Goosegrass (goosegrass; [9]) | Plant response rating, I. Ryegrass (Italian ryegrass; Rate 250 g/ha, 0 to 100 scale)
20: Plant response rating, Wild oat (wild oat [1]; [7]) | Plant response rating, Wild oat (wild oat [1]; [8]) | Plant response rating, Barley (winter) (winter barley; [8])
0: Rice plant response rating (rice; Postemergence (flood test species), Rate 125 g/ha, scale of 0 to 10 where 0 is no effect and 10 is complete control) | Rice plant response rating (rice; Rate 62 g/ha, Postemergence section, flood test species, scale of 0 to 10 where 0 is no effect and 10 is complete control) | Plant response rating, Rice (rice; Rate 250 g/ha, Postemergence (flood test), scale 0 to 10, 0 is no effect, 10 is complete control) | Rice plant response rating (rice; Rate 250 g/ha, headed Pre-emergence (flood test species), scale 0 to 10 (0 no effect, 10 complete control)) | Plant response rating, Rice (rice; Rate 500 g/ha, headed Pre-emergence (flood test species), scale 0 to 10 (0 no effect, 10 complete control)) | Rice plant response rating (rice; Rate 500 g/ha, listed under Postemergence (flood test species), scale 0 to 10, 0 no effect, 10 complete control) | Rice plant response rating (rice; Rate 1000 g/ha, Pre-emergence (as headed), scale 0 to 10) | Rice plant response rating (rice; Rate 2000 g/ha, Pre-emergence (as headed), scale 0 to 10) | Wild oats plant response rating (wild oat [4]; [14]) | Plant response rating, Com. groundsel (common groundsel; [9]) | Plant response rating, Wheat (winter) (winter wheat [5]; Rate 62 g/ha, 0 to 100 scale)
30: Plant response rating, Wheat (winter) (winter wheat [2]; [7]) | Plant response rating, Barley (winter) (winter barley; Rate 250 g/ha, 0 to 100 scale)
6: Wild oats plant response rating (0 to 10 scale) (wild oat [4]; [16]) | Wheat plant response rating (wheat; [11]) | Plant response rating, Wheat (wheat; [18])
90: Plant response rating, Wheat (winter) (winter wheat [2]; Rate 250 g/ha, 0 to 100 scale) | Plant response rating, Alexandergrass (Alexandergrass; [9]) | Plant response rating, Alexandergrass (Alexandergrass; [10])
100: Green foxtail plant response rating (Green foxtail [3]; [9]) | Plant response rating, Green foxtail (Green foxtail [3]; [9]) | Green foxtail plant response rating (Green foxtail [3]; [10]) | Plant response rating, Green foxtail (Green foxtail [3]; [10]) | Plant response rating, Green foxtail (Green foxtail [3]; Rate 500 g/ha) | Plant response rating, Goosegrass (goosegrass; [10]) | Plant response rating, Goosegrass (goosegrass; Rate 500 g/ha) | Plant response rating, Com. groundsel (common groundsel; Rate 500 g/ha)
